By MIC is commonly meant the least concentration at which growth counts as inhibited. Higher therefore signals weaker potency.

Test [1] concerns Pichia kudriavzevii. In words: In vitro minimum inhibitory concentration of compound was determined against Candida krusei after 48 hr. The test is classed as functional.
The subject of test [2] is Lichtheimia corymbifera. Description: In vitro minimum inhibitory concentration of compound was determined against Absidia corymbifera after 48 hr. The test is classed as functional.
Test [3] has as its system Aspergillus fumigatus. In words: In vitro minimum inhibitory concentration of compound was determined against Aspergillus fumigatus after 48 hr. Type of test: functional.
In test [4] the test system is Nakaseomyces glabratus. In words: In vitro minimum inhibitory concentration of compound was determined against Candida glabrata after 24 hr r. The test is classed as functional.
Test [5] relates to Trichosporon beigelii. In words: In vitro minimum inhibitory concentration of compound was determined against Trichosporon beigelii after 24 hr r. The test is classed as functional.
The subject of test [6] is Candida tropicalis. In words: In vitro minimum inhibitory concentration of compound was determined against Candida tropicalis after 24 hr r. The test is classed as functional.
Test [7] deals with Aspergillus fumigatus. Description: In vitro minimum inhibitory concentration of compound was determined against Aspergillus fumigatus after 24 hr r. The test is classed as functional.
Test [8] has as its system Trichosporon beigelii. Description: In vitro minimum inhibitory concentration of compound was determined against Trichosporon beigelii after 48 hr. Type of test: functional.
Test [9] has as its system Candida albicans. In words: In vitro minimum inhibitory concentration of compound was determined against Candida albicans after 48 hr. The test is classed as functional.
For test [10], the system named is Candida albicans. Description: In vitro minimum inhibitory concentration of compound was determined against Candida albicans after 24 hr r. The test is classed as functional.
In test [11] the test system is Trichophyton benhamiae. In words: In vitro minimum inhibitory concentration of compound was determined against Trichophyton mentagrophytes after 120 hr. The test is classed as functional, Arthroderma benhamiae.
Test [12] has as its system Nakaseomyces glabratus. Description: In vitro minimum inhibitory concentration of compound was determined against Candida glabrata after 48 hr. Type of test: functional.
For test [13], the system named is Candida tropicalis. Description: In vitro minimum inhibitory concentration of compound was determined against Candida tropicalis after 48 hr. Type of test: functional.
In test [14] the test system is Pichia kudriavzevii. In words: In vitro minimum inhibitory concentration of compound was determined against Candida krusei after 24 hr r. The test is classed as functional.
Test [15] concerns Lichtheimia corymbifera. In words: In vitro minimum inhibitory concentration of compound was determined against Absidia corymbifera after 24 hr r. Type of test: functional.
In test [16] the test system is Trichophyton benhamiae. Description: In vitro minimum inhibitory concentration of compound was determined against Trichophyton mentagrophytes after 72 hr. Type of test: functional, Arthroderma benhamiae.

In brackets after ≈: the same amount, converted by molar mass.

`CC(=O)N1CCN(c2ccc(OC[C@H]3CO[C@](Cn4ccnc4)(c4ccc(Cl)cc4Cl)O3)cc2)CC1` [KETOCONAZOLE]: the MIC turned out to be 3.91 µM (≈ 2.08 µg/mL) in test [1]; 31.2 µM (≈ 16.6 µg/mL) in test [2]; 15.6 µM (≈ 8.31 µg/mL) in test [3]; 0.24 µM (≈ 0.128 µg/mL) in test [4]; 0.12 µM (≈ 0.0638 µg/mL) in test [5]; 15.6 µM (≈ 8.31 µg/mL) in test [6]. Further, the MIC in test [7] turned out to be 15.6 µM (≈ 8.31 µg/mL); in [8] it was 0.12 µM (≈ 0.0638 µg/mL); in [9] it was 0.12 µM (≈ 0.0638 µg/mL); in [10], 0.12 µM (≈ 0.0638 µg/mL); in test [11] it was 1.95 µM (≈ 1.04 µg/mL); in test [12], 0.49 µM (≈ 0.26 µg/mL). Further, the MIC turned out to be 15.6 µM (≈ 8.31 µg/mL) in [13], 3.91 µM (≈ 2.08 µg/mL) in [14], 31.2 µM (≈ 16.6 µg/mL) in test [15] and 0.98 µM (≈ 0.521 µg/mL) in [16].
For the compound `CC1C=C(c2ccc(Br)cc2)C(=O)O1` (stereo unspecified), the MIC stood at 250 µM (≈ 63.3 µg/mL) in test [1]; 125 µM (≈ 31.6 µg/mL) in test [2]; 250 µM (≈ 63.3 µg/mL) in [3]; 500 µM (≈ 127 µg/mL) in [4]; 125 µM (≈ 31.6 µg/mL) in [5]; 250 µM (≈ 63.3 µg/mL) in [6]. Moreover, the MIC in test [7] worked out at 62.5 µM (≈ 15.8 µg/mL); in [8], 250 µM (≈ 63.3 µg/mL); in test [9] it was 62.5 µM (≈ 15.8 µg/mL); in [10], 7.81 µM (≈ 1.98 µg/mL); in [11], 62.5 µM (≈ 15.8 µg/mL); in [12] it was 1000 µM (≈ 253 µg/mL). Moreover, the MIC in test [13] stood at 500 µM (≈ 127 µg/mL); in [14], 250 µM (≈ 63.3 µg/mL); in test [15], 125 µM (≈ 31.6 µg/mL); in test [16], 31.2 µM (≈ 7.91 µg/mL).
Regarding `CC1C=C(c2ccc(Cl)c(Cl)c2)C(=O)O1` (stereo unspecified), the MIC in test [1] is greater than 500 µM; in test [2], 31.2 µM (≈ 7.6 µg/mL); in test [3] it was 62.5 µM (≈ 15.2 µg/mL); in test [4], greater than 500 µM; in test [5] it was 31.2 µM (≈ 7.6 µg/mL); in test [6], greater than 500 µM. In addition, the MIC is 7.81 µM (≈ 1.9 µg/mL) in test [7]; greater than 500 µM in test [8]; 500 µM (≈ 122 µg/mL) in test [9]; 31.2 µM (≈ 7.6 µg/mL) in test [10]; 62.5 µM (≈ 15.2 µg/mL) in test [11]; greater than 500 µM in [12]. The MIC in test [13] was greater than 500 µM; in test [14], greater than 500 µM; in test [15], 7.81 µM (≈ 1.9 µg/mL); in test [16], 31.2 µM (≈ 7.6 µg/mL).
Take `CC1C=C(c2ccc(F)cc2)C(=O)O1` (stereo unspecified): the MIC in test [1] stood at 500 µM (≈ 96.1 µg/mL); in test [2], 62.5 µM (≈ 12 µg/mL); in test [3] it was 125 µM (≈ 24 µg/mL); in [4] it was 500 µM (≈ 96.1 µg/mL); in test [5], 125 µM (≈ 24 µg/mL); in test [6], 250 µM (≈ 48 µg/mL). The MIC is 125 µM (≈ 24 µg/mL) in [7]; 250 µM (≈ 48 µg/mL) in test [8]; 250 µM (≈ 48 µg/mL) in [9]; 62.5 µM (≈ 12 µg/mL) in test [10]; 250 µM (≈ 48 µg/mL) in test [11]; 500 µM (≈ 96.1 µg/mL) in test [12]. The MIC in test [13] came out at 500 µM (≈ 96.1 µg/mL); in test [14], 500 µM (≈ 96.1 µg/mL); in [15], 62.5 µM (≈ 12 µg/mL); in [16] it was 250 µM (≈ 48 µg/mL).
Take `CC1C=C(c2ccc(Cl)cc2)C(=O)O1` (stereo unspecified): the MIC in test [1] amounted to 500 µM (≈ 104 µg/mL); in test [2] it was 250 µM (≈ 52.2 µg/mL); in test [3], 125 µM (≈ 26.1 µg/mL); in test [4], 500 µM (≈ 104 µg/mL); in test [5] it was 125 µM (≈ 26.1 µg/mL); in test [6] it was 250 µM (≈ 52.2 µg/mL). Further, the MIC in [7] was determined as 62.5 µM (≈ 13 µg/mL); in test [8], 250 µM (≈ 52.2 µg/mL); in [9], 125 µM (≈ 26.1 µg/mL); in test [10] it was 31.2 µM (≈ 6.52 µg/mL); in test [11], 62.5 µM (≈ 13 µg/mL); in [12] it was 1000 µM (≈ 209 µg/mL). Also, the MIC was determined as 500 µM (≈ 104 µg/mL) in test [13], 250 µM (≈ 52.2 µg/mL) in test [14], 125 µM (≈ 26.1 µg/mL) in test [15] and 31.2 µM (≈ 6.52 µg/mL) in test [16].
Turning to `COc1ccc(C2=CC(C)OC2=O)cc1` (stereo unspecified), the MIC was greater than 1000 µM in test [1]; greater than 1000 µM in test [2]; 1000 µM (≈ 204 µg/mL) in [3]; greater than 1000 µM in [4]; 1000 µM (≈ 204 µg/mL) in test [5]; 1000 µM (≈ 204 µg/mL) in test [6]. The MIC in test [7] was 1000 µM (≈ 204 µg/mL); in test [8], greater than 1000 µM; in [9], 1000 µM (≈ 204 µg/mL); in [10], 1000 µM (≈ 204 µg/mL); in test [11], 250 µM (≈ 51.1 µg/mL); in [12] it was greater than 1000 µM. The MIC was greater than 1000 µM in test [13], greater than 1000 µM in [14], 1000 µM (≈ 204 µg/mL) in [15] and 125 µM (≈ 25.5 µg/mL) in [16].

The record behind these values is ChEMBL document CHEMBL1133284, “3-Phenyl-5-methyl-2H,5H-furan-2-ones: tuning antifungal activity by varying substituents on the phenyl ring” (2000).
